Experimental data: patent US10670605B2, “Cysteine reactive probes and uses thereof” (The Scripps Research Institute, priority 2015, dated 2020)

Experiments:
Experiment in all cases: Competitive isoTOP-ABPP, cell lysates
Type in all cases: binding
MLTK C22 (Q9NYL2) = MLTK C22 (Q9NYL2) (Homo sapiens, UniProt Q9NYL2); conditions: for isoTOP-ABPP ratio Q9NYL2_C22: invitro, 231
CASP8 C360 (Q14790) = CASP8 C360 (Q14790) (Homo sapiens, UniProt Q14790); conditions: for isoTOP-ABPP ratio Q14790_C360: invitro
CDK5 C157 (Q00535) = CDK5 C157 (Q00535) (Homo sapiens, UniProt Q00535); conditions: for isoTOP-ABPP ratio (reactivity profile), Q00535_C157: 500 μm in-vitro ramos
CDK5 C157 (Q00535), sequence (Q00535 whole entry): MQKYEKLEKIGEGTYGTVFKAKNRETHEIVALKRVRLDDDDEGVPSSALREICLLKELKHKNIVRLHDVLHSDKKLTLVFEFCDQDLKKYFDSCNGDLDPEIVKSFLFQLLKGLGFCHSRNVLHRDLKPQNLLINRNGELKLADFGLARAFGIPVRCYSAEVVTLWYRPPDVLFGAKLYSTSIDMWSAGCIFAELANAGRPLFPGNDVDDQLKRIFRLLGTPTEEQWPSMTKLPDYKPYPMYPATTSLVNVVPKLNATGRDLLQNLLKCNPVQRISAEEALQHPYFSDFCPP

LRBA C1704 (P50851) = LRBA C1704 (P50851) (Homo sapiens, UniProt P50851)
LRBA C1704 (P50851), sequence (P50851 whole entry): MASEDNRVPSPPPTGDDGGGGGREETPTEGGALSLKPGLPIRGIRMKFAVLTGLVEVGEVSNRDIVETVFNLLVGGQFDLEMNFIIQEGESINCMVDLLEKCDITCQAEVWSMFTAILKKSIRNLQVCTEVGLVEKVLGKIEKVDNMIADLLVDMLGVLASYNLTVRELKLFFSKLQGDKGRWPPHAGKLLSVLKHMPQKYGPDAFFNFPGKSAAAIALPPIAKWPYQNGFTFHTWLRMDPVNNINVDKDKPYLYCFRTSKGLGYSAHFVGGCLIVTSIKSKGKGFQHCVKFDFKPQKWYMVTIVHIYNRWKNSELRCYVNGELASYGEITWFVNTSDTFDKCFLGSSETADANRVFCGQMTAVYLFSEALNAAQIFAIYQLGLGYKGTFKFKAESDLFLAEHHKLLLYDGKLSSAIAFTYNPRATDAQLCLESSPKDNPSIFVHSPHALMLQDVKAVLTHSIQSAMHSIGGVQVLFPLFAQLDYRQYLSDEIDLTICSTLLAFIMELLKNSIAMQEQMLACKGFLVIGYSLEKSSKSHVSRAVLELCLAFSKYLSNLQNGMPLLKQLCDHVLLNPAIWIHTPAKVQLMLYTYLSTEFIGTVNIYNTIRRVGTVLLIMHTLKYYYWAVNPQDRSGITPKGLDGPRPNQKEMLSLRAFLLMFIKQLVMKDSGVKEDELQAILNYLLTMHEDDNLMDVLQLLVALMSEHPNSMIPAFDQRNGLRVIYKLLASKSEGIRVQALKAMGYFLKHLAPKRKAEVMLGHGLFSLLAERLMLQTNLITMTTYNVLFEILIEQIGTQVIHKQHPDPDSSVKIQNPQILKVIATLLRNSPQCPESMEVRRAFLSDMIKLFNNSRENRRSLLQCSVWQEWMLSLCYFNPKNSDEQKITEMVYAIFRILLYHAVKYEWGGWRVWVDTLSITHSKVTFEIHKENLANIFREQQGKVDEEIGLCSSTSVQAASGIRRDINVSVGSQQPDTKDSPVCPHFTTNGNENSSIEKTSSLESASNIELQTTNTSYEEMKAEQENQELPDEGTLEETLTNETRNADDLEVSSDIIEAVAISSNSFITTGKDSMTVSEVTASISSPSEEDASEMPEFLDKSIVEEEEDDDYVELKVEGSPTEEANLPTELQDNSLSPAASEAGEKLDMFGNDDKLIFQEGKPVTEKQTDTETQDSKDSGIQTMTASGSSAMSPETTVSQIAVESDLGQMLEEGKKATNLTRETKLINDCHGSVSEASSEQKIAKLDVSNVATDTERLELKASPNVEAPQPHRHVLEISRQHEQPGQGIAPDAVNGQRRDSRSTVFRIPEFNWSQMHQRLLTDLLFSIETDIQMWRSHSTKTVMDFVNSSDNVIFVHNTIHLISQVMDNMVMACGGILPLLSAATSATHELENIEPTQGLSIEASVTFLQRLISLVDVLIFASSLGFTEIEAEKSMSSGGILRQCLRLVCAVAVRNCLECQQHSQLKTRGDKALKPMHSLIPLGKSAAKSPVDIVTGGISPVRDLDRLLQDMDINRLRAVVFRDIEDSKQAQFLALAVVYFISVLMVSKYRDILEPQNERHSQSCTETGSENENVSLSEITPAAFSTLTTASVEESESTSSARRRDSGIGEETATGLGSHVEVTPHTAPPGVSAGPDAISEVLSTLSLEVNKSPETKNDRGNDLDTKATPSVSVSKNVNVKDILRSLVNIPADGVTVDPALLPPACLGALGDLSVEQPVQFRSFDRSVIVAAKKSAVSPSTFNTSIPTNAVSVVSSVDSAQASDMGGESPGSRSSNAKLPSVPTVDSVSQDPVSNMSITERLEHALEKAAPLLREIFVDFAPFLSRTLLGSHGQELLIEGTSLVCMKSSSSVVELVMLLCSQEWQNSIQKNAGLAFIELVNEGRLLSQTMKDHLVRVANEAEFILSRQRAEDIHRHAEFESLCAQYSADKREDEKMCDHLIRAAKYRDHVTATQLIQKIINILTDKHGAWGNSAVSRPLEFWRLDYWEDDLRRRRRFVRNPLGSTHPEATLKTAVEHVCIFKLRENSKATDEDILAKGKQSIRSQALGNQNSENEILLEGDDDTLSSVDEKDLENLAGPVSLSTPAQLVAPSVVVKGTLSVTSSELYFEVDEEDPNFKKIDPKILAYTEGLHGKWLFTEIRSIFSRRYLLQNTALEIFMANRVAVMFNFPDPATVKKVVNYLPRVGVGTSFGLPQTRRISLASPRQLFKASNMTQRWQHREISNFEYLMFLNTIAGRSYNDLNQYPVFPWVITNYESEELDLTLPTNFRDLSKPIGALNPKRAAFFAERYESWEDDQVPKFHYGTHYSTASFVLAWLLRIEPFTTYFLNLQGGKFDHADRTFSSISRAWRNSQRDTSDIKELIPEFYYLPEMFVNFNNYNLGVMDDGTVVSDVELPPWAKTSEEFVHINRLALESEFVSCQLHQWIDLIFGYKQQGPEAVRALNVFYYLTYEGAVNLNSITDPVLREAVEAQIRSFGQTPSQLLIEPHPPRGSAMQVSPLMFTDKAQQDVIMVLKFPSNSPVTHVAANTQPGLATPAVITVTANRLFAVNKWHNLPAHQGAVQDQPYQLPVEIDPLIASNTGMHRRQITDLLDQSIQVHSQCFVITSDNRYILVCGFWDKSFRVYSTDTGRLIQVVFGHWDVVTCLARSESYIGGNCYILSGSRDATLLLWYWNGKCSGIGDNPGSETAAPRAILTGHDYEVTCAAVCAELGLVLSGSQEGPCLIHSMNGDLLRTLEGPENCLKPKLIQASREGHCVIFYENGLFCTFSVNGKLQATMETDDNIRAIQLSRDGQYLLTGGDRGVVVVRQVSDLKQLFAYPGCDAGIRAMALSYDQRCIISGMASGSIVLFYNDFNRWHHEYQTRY

NR3C1 C302 (P04150) = target: T1, NR3C1 C302 (P04150) (Homo sapiens, UniProt P04150); conditions: for isoTOP-ABPP ratio, P04150_C302: invitro; for isoTOP-ABPP ratio (reactivity profile), P04150_C302: 500 μm in-vitro ramos
T1 sequence (P04150 1-777): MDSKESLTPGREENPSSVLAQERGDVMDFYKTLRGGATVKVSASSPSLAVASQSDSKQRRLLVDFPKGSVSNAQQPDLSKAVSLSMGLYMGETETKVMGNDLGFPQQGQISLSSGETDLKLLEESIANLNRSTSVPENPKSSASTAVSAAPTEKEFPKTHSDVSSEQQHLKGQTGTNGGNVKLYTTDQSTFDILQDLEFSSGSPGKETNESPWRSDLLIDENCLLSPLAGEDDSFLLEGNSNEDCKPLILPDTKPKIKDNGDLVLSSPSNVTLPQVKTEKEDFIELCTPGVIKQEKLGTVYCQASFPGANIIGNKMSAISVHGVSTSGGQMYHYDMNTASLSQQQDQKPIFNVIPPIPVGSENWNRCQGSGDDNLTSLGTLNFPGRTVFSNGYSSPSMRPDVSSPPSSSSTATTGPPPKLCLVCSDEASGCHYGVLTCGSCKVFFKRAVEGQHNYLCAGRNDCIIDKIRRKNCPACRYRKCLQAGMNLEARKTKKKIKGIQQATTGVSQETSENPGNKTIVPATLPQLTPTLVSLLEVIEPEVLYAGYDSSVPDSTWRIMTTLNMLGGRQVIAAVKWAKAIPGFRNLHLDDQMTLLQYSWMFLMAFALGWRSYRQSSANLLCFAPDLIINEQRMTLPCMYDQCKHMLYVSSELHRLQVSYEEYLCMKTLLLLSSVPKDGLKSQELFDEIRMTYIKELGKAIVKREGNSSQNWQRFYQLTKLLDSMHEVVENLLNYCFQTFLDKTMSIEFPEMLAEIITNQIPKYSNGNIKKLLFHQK

USP16 C205 (Q9Y5T5) = USP16 C205 (Q9Y5T5) (Homo sapiens, UniProt Q9Y5T5); conditions: for isoTOP-ABPP ratio, Q9Y5T5_C205: invitro
USP16 C205 (Q9Y5T5), sequence (Q9Y5T5 whole entry): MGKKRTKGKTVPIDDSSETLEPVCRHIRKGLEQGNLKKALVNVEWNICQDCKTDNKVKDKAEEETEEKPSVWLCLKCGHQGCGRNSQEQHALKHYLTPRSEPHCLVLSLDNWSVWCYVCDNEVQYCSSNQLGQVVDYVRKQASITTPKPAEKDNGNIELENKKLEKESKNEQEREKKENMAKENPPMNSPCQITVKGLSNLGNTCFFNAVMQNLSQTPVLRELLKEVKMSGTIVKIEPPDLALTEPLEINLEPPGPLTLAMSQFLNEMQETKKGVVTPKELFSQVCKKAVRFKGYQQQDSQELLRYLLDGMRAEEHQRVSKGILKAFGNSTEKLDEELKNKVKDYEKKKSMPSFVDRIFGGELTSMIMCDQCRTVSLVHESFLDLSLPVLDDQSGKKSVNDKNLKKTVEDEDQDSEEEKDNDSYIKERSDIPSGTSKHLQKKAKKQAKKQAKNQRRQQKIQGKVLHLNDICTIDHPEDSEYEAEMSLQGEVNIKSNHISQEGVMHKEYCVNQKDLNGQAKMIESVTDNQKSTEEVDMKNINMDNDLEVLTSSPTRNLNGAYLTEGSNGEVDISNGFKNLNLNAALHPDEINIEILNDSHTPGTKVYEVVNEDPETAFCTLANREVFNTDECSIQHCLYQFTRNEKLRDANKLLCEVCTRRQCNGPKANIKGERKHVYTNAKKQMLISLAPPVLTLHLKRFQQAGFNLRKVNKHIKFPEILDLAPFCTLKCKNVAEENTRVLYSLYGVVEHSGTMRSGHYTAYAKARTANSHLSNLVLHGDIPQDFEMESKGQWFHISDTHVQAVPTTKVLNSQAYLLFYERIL

CYR61 C39 (O00622) = target: T2, CYR61 C39 (O00622) (Homo sapiens, UniProt O00622)
T2 sequence (O00622 25-381): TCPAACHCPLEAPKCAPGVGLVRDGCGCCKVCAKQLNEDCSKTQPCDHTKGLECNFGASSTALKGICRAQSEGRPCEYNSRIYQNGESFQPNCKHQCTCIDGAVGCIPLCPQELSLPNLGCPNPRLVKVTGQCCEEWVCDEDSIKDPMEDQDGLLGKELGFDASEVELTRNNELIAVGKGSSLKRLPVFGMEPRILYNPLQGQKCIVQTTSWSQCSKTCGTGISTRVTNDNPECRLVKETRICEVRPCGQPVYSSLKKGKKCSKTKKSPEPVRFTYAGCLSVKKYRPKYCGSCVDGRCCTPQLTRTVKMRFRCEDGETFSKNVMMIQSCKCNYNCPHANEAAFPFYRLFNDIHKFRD

MLTK C22 (Q9NYL2), sequence (Q9NYL2 whole entry): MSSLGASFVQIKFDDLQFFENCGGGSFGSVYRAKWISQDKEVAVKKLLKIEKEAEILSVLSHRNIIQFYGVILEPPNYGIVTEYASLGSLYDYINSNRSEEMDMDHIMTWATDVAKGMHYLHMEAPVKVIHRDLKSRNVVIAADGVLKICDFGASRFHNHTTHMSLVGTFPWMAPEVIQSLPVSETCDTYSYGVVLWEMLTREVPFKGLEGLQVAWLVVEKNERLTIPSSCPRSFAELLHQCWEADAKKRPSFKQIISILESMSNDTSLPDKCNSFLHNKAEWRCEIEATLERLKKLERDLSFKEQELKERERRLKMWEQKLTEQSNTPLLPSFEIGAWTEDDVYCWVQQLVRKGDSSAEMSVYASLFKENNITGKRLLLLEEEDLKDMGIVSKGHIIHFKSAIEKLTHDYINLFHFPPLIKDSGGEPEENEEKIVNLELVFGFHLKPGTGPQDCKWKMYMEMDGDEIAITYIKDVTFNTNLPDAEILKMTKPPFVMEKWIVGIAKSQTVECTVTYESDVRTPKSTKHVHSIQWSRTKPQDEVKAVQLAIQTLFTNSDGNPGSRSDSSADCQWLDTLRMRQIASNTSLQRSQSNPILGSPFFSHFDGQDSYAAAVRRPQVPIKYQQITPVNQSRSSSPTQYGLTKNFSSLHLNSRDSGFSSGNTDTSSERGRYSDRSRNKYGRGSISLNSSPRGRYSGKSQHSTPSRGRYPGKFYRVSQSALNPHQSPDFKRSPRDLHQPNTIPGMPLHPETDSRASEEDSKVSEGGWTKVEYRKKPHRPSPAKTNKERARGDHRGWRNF

Compound: O=C(CCl)NC1C(O)OC(CO)C(O)C1O (mixture of isomers) [compound 44]
- isoTOP-ABPP reactivity profile ratio, Q9NYL2_C22 (MLTK C22 (Q9NYL2); 500 μm, in-vitro_ramos_231): 0.8

Compound: COc1ccc2c(c1)CCCN2C(=O)CCl [compound 2]
- R value (DMSO/fragment) (CASP8 C360 (Q14790); 500 μM, in vitro, MDA-MB-231): 9.8
- R value (DMSO/fragment) (CDK5 C157 (Q00535); 500 μM, invitro, ramos): 3.2
- R value (DMSO/fragment) (LRBA C1704 (P50851); 500 μM, invitro, ramos): 3.4
- R value (DMSO/fragment) (MLTK C22 (Q9NYL2); 500 μM, in vitro, MDA-MB-231): 20.0
- R value (DMSO/fragment) (NR3C1 C302 (P04150); 500 μM, in vitro, MDA-MB-231): 2.3
- R value (DMSO/fragment) (USP16 C205 (Q9Y5T5); 500 μM, in vitro, MDA-MB-231): 20.0

Compound: C=CC(=O)N(c1ccccc1)c1ccc(Br)cc1 [compound 5]
- isoTOP-ABPP ratio Q14790_C360 (CASP8 C360 (Q14790); 500 μM, 231): 1.0
- isoTOP-ABPP ratio Q14790_C360 (CASP8 C360 (Q14790); 500 μM, ramos): 1.3
- isoTOP-ABPP ratio, Q00535_C157 (CDK5 C157 (Q00535); 500 μM, invitro, ramos): 20.0
- isoTOP-ABPP ratio, P50851_C1704 (LRBA C1704 (P50851); 500 μM, invitro, ramos): 3.6
- isoTOP-ABPP ratio Q9NYL2_C22 (MLTK C22 (Q9NYL2); 500 μM): 20.0
- isoTOP-ABPP ratio, Q9Y5T5_C205 (USP16 C205 (Q9Y5T5); 500 μM, ramos): 1.1

Compound: O=C(CCl)N1CCN(S(=O)(=O)c2ccccc2F)CC1 [compound 10]
- isoTOP-ABPP ratio Q14790_C360 (CASP8 C360 (Q14790); 500 μM, 231): 2.8
- isoTOP-ABPP ratio Q14790_C360 (CASP8 C360 (Q14790); 500 μM, ramos): 1.5
- isoTOP-ABPP ratio, P50851_C1704 (LRBA C1704 (P50851); 500 μM, invitro, ramos): 0.8
- isoTOP-ABPP ratio, P04150_C302 (NR3C1 C302 (P04150); 500 μM, 231): 4.1

Compound: O=C(CCl)NC(=O)NC12CC3CC(CC(C3)C1)C2 [compound 12]
- isoTOP-ABPP ratio, Q00535_C157 (CDK5 C157 (Q00535); 500 μM, invitro, ramos): 1.0
- isoTOP-ABPP ratio, P04150_C302 (NR3C1 C302 (P04150); 500 μM, ramos): 1.3
- isoTOP-ABPP ratio, Q9Y5T5_C205 (USP16 C205 (Q9Y5T5); 500 μM, 231): 2.2

Compound: O=C(CCl)NCCc1c[nH]c2ccccc12 [compound 13]
- isoTOP-ABPP ratio, O00622_C39 (CYR61 C39 (O00622); 500 μM, invitro, 231): 1.2
- isoTOP-ABPP ratio, P50851_C1704 (LRBA C1704 (P50851); 500 μM, invitro, 231): 0.7
- isoTOP-ABPP ratio, P50851_C1704 (LRBA C1704 (P50851); 500 μM, invitro, ramos): 0.8
- isoTOP-ABPP ratio Q9NYL2_C22 (MLTK C22 (Q9NYL2); 500 μM): 5.2
- isoTOP-ABPP ratio, Q9Y5T5_C205 (USP16 C205 (Q9Y5T5); 500 μM, ramos): 3.3

Compound: C=CC(=O)N(Cc1cccnc1)c1ccc(Oc2ccccc2)c(C(F)(F)F)c1 [compound 15]
- isoTOP-ABPP ratio (reactivity profile), P50851_C1704 (LRBA C1704 (P50851); 500 μm in-vitro ramos): 1.9
- isoTOP-ABPP ratio (reactivity profile), P04150_C302 (NR3C1 C302 (P04150)): 0.9

Compound: O=C(CCl)N1CCC(C(O)(c2ccccc2)c2ccccc2)CC1 [compound 20]
- isoTOP-ABPP ratio (reactivity profile), Q14790_C360 (CASP8 C360 (Q14790); 500 μm in-vitro ramos): 1.5
- isoTOP-ABPP ratio (reactivity profile), Q14790_C360 (CASP8 C360 (Q14790); 500 μm in-vitro ramos_231): 1.9
- isoTOP-ABPP ratio (reactivity profile), Q00535_C157 (CDK5 C157 (Q00535)): 2.0
- isoTOP-ABPP ratio (reactivity profile), P50851_C1704 (LRBA C1704 (P50851); 500 μm in-vitro ramos): 1.7
- isoTOP-ABPP ratio (reactivity profile), P50851_C1704 (LRBA C1704 (P50851); 500 μm in-vitro ramos_231): 2.0
- isoTOP-ABPP ratio (reactivity profile), Q9NYL2_C22 (MLTK C22 (Q9NYL2); 500 μm in-vitro ramos_231): 20.0

Compound: O=C(CCl)NC12CC3CC(CC(C3)C1)C2 [compound 21]
- isoTOP-ABPP ratio (reactivity profile), Q14790_C360 (CASP8 C360 (Q14790); 500 μm in-vitro ramos): 1.9
- isoTOP-ABPP ratio (reactivity profile), Q14790_C360 (CASP8 C360 (Q14790); 500 μm in-vitro ramos_231): 1.9
- isoTOP-ABPP ratio (reactivity profile), P50851_C1704 (LRBA C1704 (P50851); 500 μm in-vitro ramos): 1.6
- isoTOP-ABPP ratio (reactivity profile), Q9NYL2_C22 (MLTK C22 (Q9NYL2); 500 μm in-vitro ramos_231): 2.0
- isoTOP-ABPP ratio (reactivity profile), Q9Y5T5_C205 (USP16 C205 (Q9Y5T5); 500 μm in-vitro ramos_231): 1.6

Compound: O=C(CCl)N1CCOCC1 [compound 22]
- isoTOP-ABPP ratio (reactivity profile), Q00535_C157 (CDK5 C157 (Q00535)): 0.9
- isoTOP-ABPP ratio (reactivity profile), Q9NYL2_C22 (MLTK C22 (Q9NYL2); 500 μm in-vitro ramos_231): 1.0
- isoTOP-ABPP ratio (reactivity profile), P04150_C302 (NR3C1 C302 (P04150)): 0.9
- isoTOP-ABPP ratio (reactivity profile), Q9Y5T5_C205 (USP16 C205 (Q9Y5T5); 500 μm in-vitro ramos): 1.6

Compound: CC(Br)C(=O)Nc1cc(C(F)(F)F)cc(C(F)(F)F)c1 (centres unmarked) [compound 24]
- isoTOP-ABPP ratio (reactivity profile), Q14790_C360 (CASP8 C360 (Q14790); 500 μm in-vitro ramos): 1.4
- isoTOP-ABPP ratio (reactivity profile), P50851_C1704 (LRBA C1704 (P50851); 500 μm in-vitro ramos): 1.3

Compound: CC(Cl)C(=O)Nc1cc(C(F)(F)F)cc(C(F)(F)F)c1 (centres unmarked) [compound 25]
- isoTOP-ABPP ratio (reactivity profile), Q14790_C360 (CASP8 C360 (Q14790); 500 μm in-vitro ramos_231): 1.0
- isoTOP-ABPP ratio (reactivity profile), O00622_C39 (CYR61 C39 (O00622); 500 μm in-vitro ramos_231): 1.0
- isoTOP-ABPP ratio (reactivity profile), P50851_C1704 (LRBA C1704 (P50851); 500 μm in-vitro ramos_231): 0.8
- isoTOP-ABPP ratio (reactivity profile), Q9NYL2_C22 (MLTK C22 (Q9NYL2); 500 μm in-vitro ramos_231): 0.8

Compound: O=C(/C=C/c1ccccc1)Nc1cc(C(F)(F)F)cc(C(F)(F)F)c1 [compound 26]
- isoTOP-ABPP ratio (reactivity profile), Q00535_C157 (CDK5 C157 (Q00535)): 0.9

Compound: O=C(CCl)N1CCN(CC(=O)N2CCOCC2)CC1 [compound 29]
- isoTOP-ABPP ratio (reactivity profile), Q9NYL2_C22 (MLTK C22 (Q9NYL2); 500 μm in-vitro ramos_231): 1.2

Compound: CCN(CC)c1ccc(S(N)(=O)=O)cc1NC(=O)CCl [compound 30]
- isoTOP-ABPP ratio (reactivity profile), Q14790_C360 (CASP8 C360 (Q14790); 500 μm in-vitro ramos): 2.0
- isoTOP-ABPP reactivity ratio, Q14790_C360 (CASP8 C360 (Q14790); 500 μm, in-vitro_ramos): 5.2
- isoTOP-ABPP ratio (reactivity profile), Q9NYL2_C22 (MLTK C22 (Q9NYL2); 500 μm in-vitro ramos): 1.1
